These results are taken from PMC11859419, “New UB006 Derivatives With Higher Solubility and Cytotoxic Activity in Ovarian Cancer Cells” (Pharmaceuticals, 2025).

≈ marks a conversion by molar mass, not a printed value. Read-outs that look alike come from different tables or passages of the source.

The test system of data set [1] is OVCAR-3 cell line. In words: MTT cytotoxicity assay in OVCAR-3 ovarian cancer cells. Format: cell-based, human. The conditions noted are these: for IC50: Homo sapiens, OVCAR-3, 72 h incubation, MTT, mean ± SEM of three experiments; for Fold increase in cytotoxicity compared with (±)-UB006: OVCAR-3, ratio of IC50 values. The procedure:
OVCAR-3 (human ovary carcinoma, ATC HTB-161, passage number 20) cells were cultured at 37 °C in a humidified atmosphere of 5% CO2 in Dulbecco’s Modified Eagle Medium containing 4.5 g/L of glucose and supplemented with glutamine, 10% heat-inactivated fetal bovine serum, 100 units/mL of penicillin, and […] of streptomycin. The culture was passaged twice a week through gentle trypsinization. Cells were seeded in 10 cm culture dishes and grown to confluence. An MTT cytotoxicity assay was performed to evaluate the cytotoxic effect of the compounds. A total of 2 × 10^3 cells/well were plated in 96-well plates in […] of culture medium. After 24 h, the medium was removed, and cells were incubated for 72 h in fresh medium with different concentrations (0.5–20 µM) of the different compounds. DMSO was used as a blank at a final concentration of 0.5%. The cells were then incubated for 3 h with […] of fresh medium and […] of MTT dissolved in phosphate-buffered saline to a final concentration of 5 mg/mL. Following treatment, the supernatants were carefully removed, and the MTT–formazan crystals were solubilized by adding […] of DMSO. The absorbance was measured at 570 nm.
Samples were incubated for 3 days with increasing concentrations of the different compounds, followed by an MTT assay to quantify cell survival.

For data set [2], the target named is T1, FAS (Rattus norvegicus, UniProt P12785).
T1 construct: Cytosolic hepatic extracts obtained from rat (210 µg) were preincubated at 30 °C for 30 min; from tissue; host or cells: rat liver (cytosolic, FAS-enriched hepatic extract)
T1 sequence (P12785 whole entry): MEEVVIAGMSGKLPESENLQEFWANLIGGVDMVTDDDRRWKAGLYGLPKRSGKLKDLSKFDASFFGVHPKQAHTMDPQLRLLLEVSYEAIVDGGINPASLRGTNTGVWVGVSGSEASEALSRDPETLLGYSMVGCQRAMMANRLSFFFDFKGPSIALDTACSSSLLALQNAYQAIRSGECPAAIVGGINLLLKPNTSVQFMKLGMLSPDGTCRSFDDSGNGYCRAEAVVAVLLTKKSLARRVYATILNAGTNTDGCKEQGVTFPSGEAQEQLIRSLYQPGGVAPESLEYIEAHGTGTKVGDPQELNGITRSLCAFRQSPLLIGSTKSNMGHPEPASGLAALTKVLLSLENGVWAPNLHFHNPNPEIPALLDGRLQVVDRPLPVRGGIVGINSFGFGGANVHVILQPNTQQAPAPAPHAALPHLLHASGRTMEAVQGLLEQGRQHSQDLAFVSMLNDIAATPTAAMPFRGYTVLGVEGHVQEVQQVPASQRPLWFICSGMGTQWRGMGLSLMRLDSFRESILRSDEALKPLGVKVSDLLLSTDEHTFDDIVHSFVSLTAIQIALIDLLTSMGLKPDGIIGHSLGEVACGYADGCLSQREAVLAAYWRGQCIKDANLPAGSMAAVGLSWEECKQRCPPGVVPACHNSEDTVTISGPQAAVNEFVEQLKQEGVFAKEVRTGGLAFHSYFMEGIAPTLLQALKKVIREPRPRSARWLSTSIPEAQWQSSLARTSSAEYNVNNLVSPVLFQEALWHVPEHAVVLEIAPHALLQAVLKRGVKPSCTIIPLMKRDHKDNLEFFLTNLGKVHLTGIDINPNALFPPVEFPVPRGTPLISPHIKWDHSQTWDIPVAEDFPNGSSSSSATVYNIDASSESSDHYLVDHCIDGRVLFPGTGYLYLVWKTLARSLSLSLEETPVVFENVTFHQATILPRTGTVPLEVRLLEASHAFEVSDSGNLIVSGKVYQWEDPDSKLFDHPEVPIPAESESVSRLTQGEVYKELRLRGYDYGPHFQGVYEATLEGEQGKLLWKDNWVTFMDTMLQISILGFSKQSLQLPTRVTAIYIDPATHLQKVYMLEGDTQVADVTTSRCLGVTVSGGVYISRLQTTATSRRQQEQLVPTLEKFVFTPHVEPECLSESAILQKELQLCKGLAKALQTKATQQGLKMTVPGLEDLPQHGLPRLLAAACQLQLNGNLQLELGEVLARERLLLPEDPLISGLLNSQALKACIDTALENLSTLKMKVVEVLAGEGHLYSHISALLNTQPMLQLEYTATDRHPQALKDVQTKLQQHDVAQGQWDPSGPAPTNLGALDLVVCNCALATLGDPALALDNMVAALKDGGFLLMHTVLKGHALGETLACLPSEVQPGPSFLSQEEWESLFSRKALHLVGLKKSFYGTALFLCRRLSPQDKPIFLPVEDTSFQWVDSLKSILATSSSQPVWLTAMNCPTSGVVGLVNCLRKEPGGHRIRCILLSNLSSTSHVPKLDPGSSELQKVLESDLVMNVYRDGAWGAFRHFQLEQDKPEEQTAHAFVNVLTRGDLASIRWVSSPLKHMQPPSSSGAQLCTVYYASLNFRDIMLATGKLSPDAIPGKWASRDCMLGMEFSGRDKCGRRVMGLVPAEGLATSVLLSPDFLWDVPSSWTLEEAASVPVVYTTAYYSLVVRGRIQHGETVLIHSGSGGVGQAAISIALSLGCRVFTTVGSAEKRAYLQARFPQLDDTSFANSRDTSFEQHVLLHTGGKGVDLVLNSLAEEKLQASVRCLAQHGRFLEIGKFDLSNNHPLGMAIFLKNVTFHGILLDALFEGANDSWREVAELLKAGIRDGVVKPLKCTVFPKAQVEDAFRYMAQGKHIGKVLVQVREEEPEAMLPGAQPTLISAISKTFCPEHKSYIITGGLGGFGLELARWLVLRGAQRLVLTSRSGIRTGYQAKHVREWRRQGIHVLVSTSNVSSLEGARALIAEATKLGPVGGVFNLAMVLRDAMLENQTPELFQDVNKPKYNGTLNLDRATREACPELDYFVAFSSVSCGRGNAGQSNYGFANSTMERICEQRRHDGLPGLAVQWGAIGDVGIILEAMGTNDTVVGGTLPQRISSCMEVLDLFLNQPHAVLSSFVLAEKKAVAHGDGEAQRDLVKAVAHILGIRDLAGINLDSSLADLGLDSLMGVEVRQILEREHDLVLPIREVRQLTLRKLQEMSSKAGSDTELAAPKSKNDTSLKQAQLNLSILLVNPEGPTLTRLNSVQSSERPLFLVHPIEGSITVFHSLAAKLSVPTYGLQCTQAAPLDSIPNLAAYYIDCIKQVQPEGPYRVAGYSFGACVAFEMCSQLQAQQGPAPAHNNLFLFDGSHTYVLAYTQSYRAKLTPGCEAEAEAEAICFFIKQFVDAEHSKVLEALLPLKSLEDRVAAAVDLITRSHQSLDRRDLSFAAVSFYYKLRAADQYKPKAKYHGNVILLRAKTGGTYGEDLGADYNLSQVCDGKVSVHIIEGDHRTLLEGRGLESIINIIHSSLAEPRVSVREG
The data set is described as follows: Spectrophotometric FAS activity assay in rat liver extracts. The conditions noted are these: rat liver extracts (210 µg), preincubated 30 min at 30 °C, mean ± SEM of three experiments. Format: biochemical. The procedure:
For in vitro experiments, FAS was purified from rat liver following the protocol previously described by Linn. FAS activity was measured using a spectrophotometric method, as previously described. […] NADPH (121 µM) and acetyl-CoA (61 µM) in potassium phosphate buffer (pH 7.2) were added to preincubated enzyme and equilibrated at 37 °C for 3 min. The reaction was initiated through the addition of malonyl-CoA (55 µM). The total reaction volume was 330 µL. Oxidation of NADPH was measured at 340 nm at 37 °C for 10 min.
Figure 3 FAS activity assay in rat liver extracts. Representation of % of remaining FAS activity of spectrophotometric activity assay.

Data set [3] can be described thus: Turbidimetry solubility assay. The format is physicochemical. The conditions noted are these: for solubility at 2 h: kinetic from dmso stock, 2 h at 37 °C, tested 25 μM–2 mM; for Solubility over tested concentrations: tested concentrations 25–2000 µM. The procedure: This effectively created two regression lines, with the intersection corresponding to the solubility of the compound.
The compounds were incubated for 2 h at 37 °C in a Thermoshaker (Biosan®, Riga, Latvia). Solubility was assessed through turbidimetry at 600 nm using Varioskan Lux® (Thermo Scientific®, Waltham, MA, USA). The approximate solubility was calculated by finding the intersection of the two regression lines formed before and after the curve tendency change due to precipitation of the compounds.

The target in data set [4] is T1, FAS. More on the design: method as in PMID 23620264. The conditions noted are these: previously described by the group; read-out: IC50 (FAS inhibition); cited from earlier work.
On the set-up of data set [5]: method as in earlier work. The conditions noted are these: cited from earlier work.

By IC50 is commonly meant the concentration at which inhibition is half-maximal. As usually defined, the solubility is how much of the substance goes into solution per volume. Read a high solubility as much dissolved substance. In turn, `C=C1C(=O)O[C@@H](CCCCCCCC)[C@H]1C(O)C(O)CO` (mixture of isomers) [(±)-UB036, (4RS,5SR)-3-methylene-5-octyl-4-(1,2,3-trihydroxypropyl)dihydrofuran-2(3H)-one] gave a half-maximal inhibitory concentration (IC50) in data set [1] of 5.5 ± 0.8 µM. Also, the IC50 in data set [2] worked out at 458 ± 54 µM. Moreover, in data set [3] (water with 1% DMSO), the solubility at 2 h was more than 2000 µM and the “Fold increase in solubility compared with (±)-UB006” value was not below 4 fold. Also, in data set [3], the “Solubility over tested concentrations” value is listed as “soluble at all tested concentrations”.
On to `C=C1C(=O)O[C@@H](CCCCCCCC)[C@H]1C(O)CCCCCC` (mixture of isomers) [(±)-UB033, (4RS,5SR)-4-(1-hydroxyheptyl)-3-methylene-5-octyldihydrofuran-2(3H)-one], for which the IC50 in data set [1] was 13.6 ± 1.3 µM. In addition, the concentration in solution in data set [3] (water with 1% DMSO) (solubility at 2 h) came to 76 µM (≈ 24.7 µg/mL).
Turning to `C=C1C(=O)O[C@@H](CCCCCCCC)[C@H]1[C@@H](O)CO` (racemic) [(±)-UB035, (4RS,5SR)-4-((RS)-1,2-dihydroxyethyl)-3-methylene-5-octyldihydrofuran-2(3H)-one], the IC50 in data set [1] is 2.1 ± 0.2 µM; in data set [2], 565 ± 62 µM. Also, in data set [1], the “Fold increase in cytotoxicity compared with (±)-UB006” value was found to be 2.5 fold. The solubility at 2 h in data set [3] (water with 1% DMSO) was more than 2000 µM. Further, the “Solubility over tested concentrations” value in data set [3] was “soluble at all tested concentrations”.
Take `C=CC(O)[C@H]1C(=C)C(=O)O[C@H]1CCCCCCCC` (mixture of isomers) [(±)-UB034, (4RS,5SR)-4-(1-hydroxyallyl)-3-methylene-5-octyldihydrofuran-2(3H)-one]: in data set [1], the IC50 was 12.3 ± 1.2 µM. Moreover, the solubility at 2 h in data set [3] (water with 1% DMSO) was found to be 88 µM (≈ 23.4 µg/mL).
The molecule `C=C1C(=O)O[C@@H](CCCCCCCC)[C@H]1C(O)CC` (mixture of isomers) [(±)-UB032, (4RS,5SR)-4-(1-hydroxypropyl)-3-methylene-5-octyldihydrofuran-2(3H)-one] had a 50% inhibitory concentration (IC50) in data set [1] of 10.7 ± 0.9 µM. In data set [3] (water with 1% DMSO), this molecule displayed a solubility at 2 h of 390 µM (≈ 105 µg/mL).
With `C=C1C(=O)O[C@@H](CCCCCCCC)[C@H]1C(C)O` (mixture of isomers) [(±)-UB031, (4RS,5SR)-4-(1-hydroxyethyl)-3-methylene-5-octyldihydrofuran-2(3H)-one], in data set [1], the concentration for half-maximal inhibition (IC50) stood at 3.6 ± 0.2 µM and the “Fold increase in cytotoxicity compared with (±)-UB006” value worked out at 1.4 fold. In data set [3] (water with 1% DMSO), the concentration in solution (solubility at 2 h) was 473 µM (≈ 120 µg/mL).
In turn, `C=C1C(=O)O[C@@H](CCCCCCCC)[C@@H]1CO` (racemic) [(±)-UB006, (4SR,5SR)-4-(hydroxymethyl)-3-methylene-5-octyldihydrofuran-2(3H)-one] displayed a solubility at 2 h in data set [3] (water with 1% DMSO) of 550 µM (≈ 132 µg/mL).
For `C=C1C(=O)O[C@@H](CCCCCCCC)[C@@H]1C(=O)O` (racemic) [(±)-C75], the IC50 in data set [4] is 460 ± 56 µM. Besides, the “Solubility in basic aqueous media” value in data set [5] (basic aqueous media) is less than 100 µg/mL. Besides, the Solubility in water result in data set [5] (water) is “insoluble in water”.
